Source: US6692557B1, “Antifouling of shellfish and aquaculture apparatus” (Unisearch Limited, priority 1997, dated 2004)

Legend:
[1] = tested on: fouling organisms (predominantly barnacles, small percentages of bryozoans and oysters); test: Port Stephens Stage I field trial: fouling cover on coated live oysters; assay type: in vivo; conditions: sub-tidal; for Mean fouling cover on coated oysters: 22 week trial, untreated control 50%
Description: The field trial testing the antifouling coatings on oysters at the Port Stephens Fisheries Centre was finalised on week 22 of the trial. This coincided with the slight increase, at varying rates, of the fouling cover on the treated oysters, as shown by FIG. 8.
The trial was testing the antifouling efficacy of two different active ingredients (AI's). Sea-Nine 211™ and the furanone 281, incorporated into carrier coatings when applied to live oysters. The AI's are being tested at concentrations ranging from 10-15% by weight of the carrier coating, using both single and double coats. The trial was conducted in both the inter-tidal and the sub-tidal. In addition to monitoring fouling, oyster mortality was monitored to determine if the coatings and methods used were harmful to the oysters.
Fouling cover was first measured 6 weeks after the start of the trial and has been measured every 3 weeks thereafter. Coated oysters were photographed in the field using a digital camera and fouling cover was measured in the laboratory using the digital images. Fouling cover was measured by estimating the percentage cover of fouling organisms on the oysters. The fouling cover observed was comprised predominantly of barnacles and a small percentages of bryozoans and oysters.

[2] = Stage II shellac trial: leaching / release of Sea-Nine 211 from shellac; assay type: physicochemical
Method: (§1) The shellac trial (stage II) was run for 30 weeks. This experiment was conducted to improve novel antifouling techniques for the aquaculture industry. Shellac was used as a carrier to coat Sea-Nine 211™ onto perspex tiles to determine whether Shellac with C9-211 was effective as an antifouling application and whether the rate at which Sea-Nine 211™ would leach out of the shellac formulation.
Measurements of leaching were carried out to determine the decrease in concentration of Sea-Nine 211™ in each treatment, as shown on FIG. 11. This indicates a regular rate of leaching over the 18 week trial period for each treatment of the same concentration. The rate of leaching is highest for the 15% Sea-Nine 211™ loadings (single and double), while decreasing with reduced compound loading.
The rate of compound release per day is important on determining the effectiveness of a given treatment over time (FIG. 12). Treatments 5% single layer, 10% single and double layer and 15% double layer had the highest initial drops with release rates from 1-2 μg/cm^2/day. The release rate varied for each treatment, over the following 16 weeks, but remained less than 2.0 μg/cm^2/day (FIG. 12).

fouling organisms = test: Stage II shellac trial: fouling on coated perspex tiles; assay type: in vivo; conditions: shellac carrier, 10% double layer, 15% single and double layers, controls 75% fouling cover after 4 weeks
Method: as §1

Pacific oyster recruits = test: Port Stephens Stage I field trial: Pacific oyster bycatch on coated oysters; assay type: in vivo; conditions: sub-tidal, double coated treatments, at either 10 or 15%
Description: After twelve weeks into the fouling trial there was a Pacific oyster settlement event. This enabled an observation of the efficacy of the different coatings as inhibitors of oyster bycatch. FIG. 9 presents the number of new Pacific oyster recruits that settled on the coated oysters.

Rate of leaching from shellac ([2]; 15% loadings (single and double), 18 week trial period): highest
Release rate from shellac ([2]; each treatment, over the following 16 weeks): less than 2.0 μg/cm^2/day
Release rate from shellac ([2]; initial, treatments 5% single layer, 10% single and double layer, 15% double layer): 1-2 μg/cm^2/day
Structure (SMILES): CCCCCCCCn1sc(Cl)c(Cl)c1=O [Sea-Nine 211™, 4,5-dichloro-2-n-octyl-4-isothiazolin-3-one]
Mean fouling cover on coated oysters ([1]; active ingredient 10%, single and double coatings): 20%
Mean fouling cover on coated oysters ([1]; active ingredient 15% in carrier coating, single and double coats): 15%
Inhibition of fouling cover ([1]; 15% single and double coats): 85%
Time tiles remained unfouled (fouling organisms): 30 weeks
Inhibition of Pacific oyster bycatch (Pacific oyster recruits): almost totally inhibiting bycatch
